Results on 56 compounds are retold here after patent US20250064789A1, “KETOAMIDE DERIVATIVES AND PHARMACEUTICAL USES THEREOF” (priority 2022, published 2025).

The target in this experiment is recombinant SARS-CoV-2 M^pro (Severe acute respiratory syndrome coronavirus 2 (2019-nCoV) (SARS-CoV-2), UniProt P0DTD1). Description: Inhibition of SARS-CoV-2 M^pro enzyme activity (fluorescent substrate assay). It counts as biochemical. The conditions noted are these: inhibition of SARS-CoV-2 M^pro enzyme activity, read-out: IC50.

Where two headings read alike, the source gives them in different places. Where only a bound is given, the exact number is not on record here.

As for `CC(C)[C@@H](NC(=O)c1ccc(F)cc1)C(=O)N[C@H](Cc1ccccc1)C(=O)C(=O)NCc1ccccn1` [Compound 247], the IC50 (values in nM) is 38.2 ± 2.8 nM.

Consider `O=C(NCc1ccccn1)C(=O)[C@@H](Cc1ccccc1)NC(=O)C1(NC(=O)c2ccc(F)cc2)CCCC1` [Compound 248], for which the IC50 (values in nM) worked out at 24.6 ± 0.6 nM.

Turning to `O=C(NCc1ccccn1)C(=O)[C@@H](Cc1ccccc1)NC(=O)C(NC(=O)c1ccc(F)cc1)C(F)(F)F` (some centres unmarked) [Compound 249], the IC50 (values in nM) amounted to 256 ± 6.4 nM.

In the case of `O=C(NCc1ccccn1)C(=O)[C@@H](Cc1ccccc1)NC(=O)[C@H](NC(=O)c1ccc(F)cc1)C1CC1` [Compound 250], where the note is “values in nM”, the IC50 is 42.4 ± 2.4 nM.

As for `CC[C@@H](C)C(NC(=O)c1ccc(F)cc1)C(=O)N[C@H](Cc1ccccc1)C(=O)C(=O)NCc1ccccn1` (some centres unmarked) [Compound 251], the IC50 (values in nM) came to 34.2 ± 0.5 nM.

As to `CC(C)(C)C(NC(=O)c1ccc(F)cc1)C(=O)N[C@H](Cc1ccccc1)C(=O)C(=O)NCc1ccccn1` (some centres unmarked) [Compound 252], for the setting “values in nM”, the IC50 is 94.9 ± 2.7 nM.

As to `COC[C@@H](NC(=O)c1ccc(F)cc1)C(=O)N[C@H](Cc1ccccc1)C(=O)C(=O)NCc1ccccn1` [Compound 253], where the note is “values in nM”, the IC50 worked out at 22.4 ± 1.4 nM.

Consider `NC(=O)C[C@@H](NC(=O)c1ccc(F)cc1)C(=O)N[C@H](Cc1ccccc1)C(=O)C(=O)NCc1ccccn1` [Compound 254], for which the IC50 (values in nM) came to 45.5 ± 3.1 nM.

Take `CC(C)(C)OC(=O)NCC(C)(C)C(=O)N[C@H](Cc1ccccc1)C(=O)C(=O)NCc1ccccn1` [Compound 255]: the IC50 (values in nM) turned out to be 111 ± 4.1 nM.

Take `O=C(NCc1ccccn1)C(=O)[C@@H](Cc1ccccc1)NC(=O)C1[C@H]2CCC[C@H]2CN1C(=O)c1cc2cc(Cl)ccc2o1` (some centres unmarked) [Compound 256]: the IC50 (values in nM) was found to be 20.5 ± 1.7 nM.

As for `O=C(NCc1ccccn1)C(=O)[C@@H](Cc1ccccc1)NC(=O)[C@@H]1[C@H]2CCC[C@H]2CN1C(=O)COc1ccc(Cl)c(Cl)c1` [Compound 257], the IC50 (values in nM) was found to be 71.8 ± 0.1 nM.

`O=C(NCc1ccccn1)C(=O)[C@@H](Cc1ccccc1)NC(=O)[C@@H]1[C@H]2CCC[C@H]2CN1C(=O)NC1CCCCC1` [Compound 258]: the IC50 (values in nM) turned out to be 93.2 ± 0.6 nM.

Take `O=C(NCc1ccccn1)C(=O)[C@@H](Cc1ccccc1)NC(=O)[C@@H]1[C@H]2CCC[C@H]2CN1C(=O)CC1CCC(F)(F)CC1` [Compound 259]: the IC50 (values in nM) worked out at 21.4 ± 3.5 nM.

Regarding `O=C(NCc1ccccn1)C(=O)[C@@H](Cc1ccccc1)NC(=O)[C@@H]1[C@H]2CCC[C@H]2CN1C(=O)c1cnccn1` [Compound 260], the IC50 (values in nM) is 742 ± 6.3 nM.

Regarding `O=C(NCc1ccccn1)C(=O)[C@@H](Cc1ccccc1)NC(=O)[C@@H]1[C@H]2CCC[C@H]2CN1C(=O)[C@@H](NC(=O)c1cnccn1)C1CCCCC1` [Compound 261], the IC50 (values in nM) stood at 863.6 ± 0.1 nM.

As to `CC1(C)[C@@H]2[C@@H](C(=O)N[C@H](Cc3ccccc3)C(=O)C(=O)NCc3ccccn3)N(C(=O)C3CCC(F)(F)CC3)C[C@@H]21` [Compound 262], the IC50 (values in nM) stood at 933.7 ± 5 nM.

For the compound `O=C(NCc1ccccn1)C(=O)[C@@H](Cc1ccccc1)NC(=O)[C@@H]1C[C@@H]2CCC[C@@H]2N1C(=O)C1CCC(F)(F)CC1` [Compound 263], under “values given in μM”, the IC50 is 1560 ± 50 nM.

Take `O=C(NCc1ccccn1)C(=O)[C@@H](Cc1ccccc1)NC(=O)[C@@H]1C[C@@H]2CCCC[C@@H]2N1C(=O)C1CCC(F)(F)CC1` [Compound 264]: where the note is “values given in μM”, the IC50 is over 2500 nM.

On to `O=C(NCc1ccccn1)C(=O)[C@@H](Cc1ccccc1)NC(=O)[C@H]1C[C@@H]2CCCC[C@@H]2N1C(=O)C1CCC(F)(F)CC1` [Compound 265], for which, under “values in nM”, the IC50 is 15.6 ± 0.1 nM.

Turning to `O=C(NCc1ccccn1)C(=O)[C@@H](Cc1ccccc1)NC(=O)C1c2ccccc2CN1C(=O)C1CCC(F)(F)CC1` (some centres unmarked) [Compound 266], the IC50 (values in nM) was 34.4 ± 2.3 nM.

Take `O=C(NCc1ccccn1)C(=O)[C@@H](Cc1ccccc1)NC(=O)[C@H]1Cc2ccccc2CN1C(=O)C1CCC(F)(F)CC1` [Compound 267]: the IC50 (values in nM) is 11.2 ± 0.3 nM.

`O=C(NCc1ccccn1)C(=O)[C@@H](Cc1ccccc1)NC(=O)[C@@H]1C[C@H]2C[C@H]2N1C(=O)C1CCC(F)(F)CC1` [Compound 268]: under “values in nM”, the IC50 was determined as 296 ± 3.8 nM.

`O=C(NCc1ccccn1)C(=O)[C@@H](Cc1ccccc1)NC(=O)[C@H]1C[C@H]2C[C@H]2N1C(=O)C1CCC(F)(F)CC1` [Compound 269]: the IC50 (values in nM) is 19.6 ± 0.4 nM.

As for `O=C(NCc1ccccn1)C(=O)[C@@H](Cc1ccccc1)NC(=O)[C@@H]1[C@H]2CC[C@H](C2)N1C(=O)C1CCC(F)(F)CC1` [Compound 270], the IC50 (values given in μM) is over 2500 nM.

For `O=C(NCc1ccccn1)C(=O)[C@@H](Cc1ccccc1)NC(=O)[C@H]1Cc2ccccc2CN1C(=O)[C@@H](NC(=O)c1cnccn1)C1CCCCC1` [Compound 271], the IC50 (values in nM) is 11.5 ± 0.1 nM.

With `O=C(NCc1ccccn1)C(=O)[C@@H](Cc1ccccc1)NC(=O)[C@@H]1CC2(CC2)CN1C(=O)C1CCC(F)(F)CC1` [Compound 272], the IC50 (values given in μM) is over 2500 nM.

As for `O=C(NCc1ccccn1)C(=O)[C@@H](Cc1ccccc1)NC(=O)[C@H]1C[C@@H]2C[C@@H]2N1C(=O)CC1CCC(F)(F)CC1` [Compound 273], the IC50 (values in nM) was found to be 17 ± 0.1 nM.

Regarding `O=C(NCc1ccccn1)C(=O)[C@@H](Cc1ccccc1)NC(=O)C12CC(CN1C(=O)C1CCC(F)(F)CC1)C2` [Compound 274], the 50% inhibitory concentration (IC50) (values in nM) is 910.8 ± 6.5 nM.

On to `O=C(NCc1ccccn1)C(=O)[C@@H](Cc1ccccc1)NC(=O)[C@H]1CC(F)(F)CN1C(=O)CC1CCC(F)(F)CC1` [Compound 276], for which the IC50 (values in nM) was determined as 13 ± 0.8 nM.

As to `O=C(NCc1ccccn1)C(=O)[C@@H](Cc1ccccc1)NC(=O)[C@H]1CC(F)(F)CN1C(=O)C1(F)CCCCC1` [Compound 277], the IC50 (values in nM) was determined as 30.7 ± 0.6 nM.

Turning to `O=C(NCc1ccccn1)C(=O)[C@@H](Cc1ccccc1)NC(=O)[C@H]1CC(F)CN1C(=O)C1CCC(F)(F)CC1` (some centres unmarked) [Compound 278], the IC50 (values in nM) was 33.7 ± 0.5 nM.

For `O=C(NCc1ccccn1)C(=O)[C@@H](Cc1ccccc1)NC(=O)C1CCN(Cc2ccccc2)C1` (some centres unmarked) [Compound 279], under “values in nM”, the half-inhibitory concentration (IC50) came out at 272 ± 6.2 nM.

On to `O=C(NCc1ccccn1)C(=O)[C@@H](Cc1ccccc1)NC(=O)[C@@H]1CCCN1C(=O)[C@@H](NC(=O)c1cnccn1)C1CCCCC1` [Compound 280], for which, for the setting “values in nM”, the IC50 worked out at 13.2 ± 1.2 nM.

On to `O=C(NCc1ccccn1)C(=O)[C@@H](Cc1ccccc1)NC(=O)[C@H]1CCCCN1C(=O)[C@H]1CC[C@@H](C(F)(F)F)CC1` [Compound 281], for which the half-maximal inhibitory concentration (IC50) (values in nM) is 14.8 ± 0.1 nM.

In the case of `O=C(NCc1ccccn1)C(=O)[C@@H](Cc1ccccc1)NC(=O)[C@H]1CCCCN1C(=O)C1CCC(F)(F)CC1` [Compound 282], where the note is “values in nM”, the half-maximal inhibitory concentration (IC50) was 13.4 ± 0.4 nM.

With `O=C(NCc1ccccn1)C(=O)[C@@H](Cc1ccccc1)NC(=O)[C@H]1CCCCN1C(=O)CC1CCC(F)(F)CC1` [Compound 283], where the note is “values in nM”, the 50% inhibitory concentration (IC50) stood at 14.6 nM.

Regarding `O=C(NCc1ccccn1)C(=O)[C@@H](Cc1ccccc1)NC(=O)[C@H]1CCCCN1C(=O)[C@H](NC(=O)c1cnccn1)C1CCCCC1` [Compound 284], the IC50 (values in nM) turned out to be 14.4 ± 0.2 nM.

As to `O=C(NCc1ccccn1)C(=O)[C@@H](Cc1ccccc1)NC(=O)[C@H]1CCCCN1C(=O)CCC1CCC(F)(F)CC1` [Compound 285], where the note is “values in nM”, the IC50 was determined as 17.1 ± 0.2 nM.

As to `O=C(NCc1ccccn1)C(=O)[C@@H](Cc1ccccc1)NC(=O)[C@H]1CCCCN1C(=O)[C@@H]1C[C@@H]2[C@H](C1)C2(F)F` [Compound 286], the IC50 (values in nM) amounted to 16.3 ± 1.5 nM.

For `O=C(NCc1ccccn1)C(=O)[C@@H](Cc1ccccc1)NC(=O)[C@H]1COCCN1C(=O)[C@H]1CC[C@@H](C(F)(F)F)CC1` [Compound 287], the IC50 (values in nM) amounted to 24.1 nM.

With `O=C(NCc1ccccn1)C(=O)[C@@H](Cc1ccccc1)NC(=O)[C@H]1COCCN1C(=O)CCC1CCC(F)(F)CC1` [Compound 291], the IC50 (values in nM) stood at 13.1 ± 2.8 nM.

On to `O=C(NCc1ccccn1)C(=O)[C@@H](Cc1ccccc1)NC(=O)[C@@H]1COCCN1C(=O)CC1CCC(F)(F)CC1` [Compound 292], for which the IC50 (values in nM) was 11.4 ± 0.2 nM.

For `O=C(NCc1ccccn1)C(=O)[C@@H](Cc1ccccc1)NC(=O)[C@H]1COCCN1C(=O)[C@@H]1C[C@@H]2[C@H](C1)C2(F)F` [Compound 293], the half-inhibitory concentration (IC50) (values in nM) worked out at 16.4 ± 1.1 nM.

Regarding `O=C(NCc1ccccn1)C(=O)[C@@H](Cc1ccccc1)NC(=O)[C@H]1COCCN1C(=O)C1(F)CCCCC1` [Compound 294], where the note is “values in nM”, the IC50 was 14.5 ± 0.2 nM.

In the case of `C[C@@H](NC(=O)NC1CCC(F)(F)CC1)C(=O)N[C@H](Cc1ccccc1)C(=O)C(=O)NCc1ccccn1` [Compound 295], the IC50 (values in nM) was determined as 12.2 nM.

`C[C@@H](NC(=O)N1CCC(C(F)(F)F)CC1)C(=O)N[C@H](Cc1ccccc1)C(=O)C(=O)NCc1ccccn1` [Compound 297]: the IC50 (values in nM) is 18.1 ± 0.3 nM.

As to `C[C@@H](NC(=O)N1CC2(C1)CC(F)(F)C2)C(=O)N[C@H](Cc1ccccc1)C(=O)C(=O)NCc1ccccn1` [Compound 298], the IC50 (values in nM) was 14.9 ± 0.1 nM.

Regarding `O=C(NC1CCC(F)(F)CC1)NC1(C(=O)N[C@H](Cc2ccccc2)C(=O)C(=O)NCc2ccccn2)CC1` [Compound 299], for the setting “values in nM”, the IC50 is 15.7 ± 0.1 nM.

In the case of `O=C(NCc1ccccn1)C(=O)[C@@H](Cc1ccccc1)NC(=O)C1(NC(=O)N2CCC(F)(F)CC2)CC1` [Compound 300], the IC50 (values given in μM) came out at 2430 ± 40 nM.

As to `CC(C)(NC(=O)NC1CCC(F)(F)CC1)C(=O)N[C@H](Cc1ccccc1)C(=O)C(=O)NCc1ccccn1` [Compound 301], the half-maximal inhibitory concentration (IC50) (values in nM) turned out to be 9.2 ± 0.4 nM.

Regarding `CC(C)(NC(=O)N1CCC(F)(F)CC1)C(=O)N[C@H](Cc1ccccc1)C(=O)C(=O)NCc1ccccn1` [Compound 302], the IC50 (values in nM) is 41.5 ± 0.9 nM.

On to `CC(C)(NC(=O)NCC1CCC(F)(F)CC1)C(=O)N[C@H](Cc1ccccc1)C(=O)C(=O)NCc1ccccn1` [Compound 303], for which the IC50 (values in nM) came out at 10.7 ± 1 nM.

Consider `O=C(CNC(=O)N1CCC(F)(F)CC1)N[C@H](Cc1ccccc1)C(=O)C(=O)NCc1ccccn1` [Compound 304], for which the IC50 (values in nM) amounted to 53.8 ± 5.8 nM.

With `O=C(CNC(=O)NC1CCC(F)(F)CC1)N[C@H](Cc1ccccc1)C(=O)C(=O)NCc1ccccn1` [Compound 305], the IC50 (values in nM) is 24.3 ± 0.4 nM.

On to `O=C(N[C@@H](C1CC1)C(F)(F)F)NC1(C(=O)N[C@H](Cc2ccccc2)C(=O)C(=O)NCc2ccccn2)CCC1` [Compound 306], for which the concentration for half-maximal inhibition (IC50) (values in nM) was 19.3 ± 1 nM.

In the case of `O=C(N[C@H](C1CC1)C(F)(F)F)NC1(C(=O)N[C@H](Cc2ccccc2)C(=O)C(=O)NCc2ccccn2)CCC1` [Compound 307], for the setting “values in nM”, the IC50 was found to be 26 ± 2.1 nM.

As a reminder, the IC50 is the concentration that gives 50% inhibition.
